# Calls of active or inactive are those of the source. The calls are words filed in the database; no cut-off is given here.
# Experiments:
# Homo sapiens = species on record: Homo sapiens; experiment: Selectivity index, ratio of Ki for human TSPO A147T mutant expressed in HEK293 cell membranes to Ki for human TSPO expressed in HEK293 cell membranes; assay type: cell-based
# Translocator protein = Translocator protein (Homo sapiens, UniProt P30536); experiment: Displacement of [3H]PK11195 from wild-type human TSPO expressed in HEK293 cell membranes after 90 mins by scintillation counting method; parameters: species or system Cell membrane
# Sequence of Translocator protein (P30536 whole entry): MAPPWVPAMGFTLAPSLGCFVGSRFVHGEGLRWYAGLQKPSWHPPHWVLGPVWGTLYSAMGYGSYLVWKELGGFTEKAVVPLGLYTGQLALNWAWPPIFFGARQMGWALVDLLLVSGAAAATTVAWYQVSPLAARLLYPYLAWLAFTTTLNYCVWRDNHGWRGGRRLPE
SMILES,Ki (Translocator protein),Ratio Ki (Homo sapiens)
C#CCN(C)C(=O)c1nc2ccccc2n1Cc1ccc(Cl)cc1,> 10000 nM,inactive
CCN(CC)C(=O)c1nc2ccccc2n1Cc1ccccc1,> 10000 nM,inactive
C#CCN(C)C(=O)c1cc2cc(C)ccc2n1Cc1ccc(OC)nc1,> 10000 nM,0.1
C#CCN(C)C(=O)c1nc2ccccc2n1Cc1ccc(OC)cc1,3280 nM,> 3
C#CCN(C)C(=O)c1cc2cc(NC(C)=O)ccc2n1Cc1ccc(OC)cc1,2070 nM,1.4
CCN(CC)C(=O)c1nc2ccccc2n1Cc1ccc(OC)cc1,3060 nM,> 3.3
CCN(CC)C(=O)c1cc2cc(C)ccc2n1Cc1ccc(OCc2ccccc2)cc1,> 10000 nM,inactive
CCN(CC)C(=O)CN(Cc1ccc(OCCF)cc1)c1cc(C)cc(C)c1,1290 nM,> 7.7
CCN(CC)C(=O)c1nc2ccccc2n1Cc1ccc(OC)nc1,> 10000 nM,inactive
C#CCN(C)C(=O)c1cc2cc(NS(C)(=O)=O)ccc2n1Cc1ccc(OC)cc1,1500 nM,0.5
CCN(CC)C(=O)c1cc2cc(C)ccc2n1Cc1ccc(O)cc1,> 10000 nM,inactive
CCN(CC)C(=O)CN(Cc1ccc(OC)cc1)c1cc(C)cc(C)c1,1200 nM,3.5
CCN(CC)C(=O)CN(Cc1ccc(OC(C)C)cc1)c1cc(C)cc(C)c1,2240 nM,> 4.5
CN(Cc1ccccc1)C(=O)c1nc2ccccc2n1Cc1ccc(Cl)cc1,> 10000 nM,inactive
CCN(CC)C(=O)c1cc2cc(C)ccc2n1Cc1cn[nH]n1,> 10000 nM,inactive
CCN(CC)C(=O)c1nc2ccccc2n1Cc1ccc(Cl)cc1,> 10000 nM,< 0.3

# The next compounds have a lower Ki (Translocator protein) than those just listed; values first:
Ki (Translocator protein),SMILES,Ratio Ki (Homo sapiens)
377 nM,CC(=O)N(Cc1ccc(OCc2ccccc2)cc1)c1cc(C)cc(C)c1,2
433 nM,CCN(CC)C(=O)CN(Cc1ccc(OCc2ccccc2)cc1)c1cc(C)cc(C)c1,4.2
275 nM,CC(=O)N(Cc1ccc(OCCF)cc1)c1cc(C)cc(C)c1,14.3
1010 nM,CCN(CC)C(=O)CN(Cc1ccccc1)c1cc(C)cc(C)c1,4.2
114 nM,CCN(CC)C(=O)Cn1c(-c2ccc(OC)cc2)cc2c(C)cc(C)cc21,5.7
275 nM,CC(=O)N(Cc1ccccc1)c1cc(C)cc(C)c1,4.6
208 nM,CCN(CC)C(=O)Cn1c(-c2ccc(OC)cc2)nc2c(C)cc(C)cc21,4.2
823 nM,CC(=O)N(Cc1ccc(OC(C)C)cc1)c1cc(C)cc(C)c1,3.8
500 nM,COc1ccc(CN(C(C)=O)c2cc(C)cc(C)c2)cc1,5.6

# Source: ChEMBL document CHEMBL4699406, “Reversing binding sensitivity to A147T translocator protein” (RSC Med Chem, 2020)
